Test results reported in article PMC9221509, “Discovery of a Novel Antimicrobial Peptide, Temporin-PKE, from the Skin Secretion of Pelophylax kl. esculentus, and Evaluation of Its Structure-Activity Relationships” (Biomolecules, 2022).
Where two headings read alike, the source gives them in different places. No end group written: not given here.

Legend:
[1] = tested on: E. faecalis (NCTC 12697) biofilm; format: cell-based, Enterococcus faecalis; conditions: NCTC 12697, 24 h
Protocol: The anti-biofilm activities of the peptides against S. aureus (ATCC 6538), MRSA (NCTC 12493), E. faecalis (NCTC 12697), E. coli (ATCC CRM 8739), K. pneumoniae (ATCC 43816), and P. aeruginosa (ATCC CRM 9027), were evaluated. For the MBIC assay, 99 µL of bacterial suspension (5 × 10^5 CFU/mL) was mixed with 1 µL of serial dilutions (from 100 µM to 51,200 µM) of temporin-PKE and its analogues in a 96-well plate, and the plate was incubated in a moist shaking incubator at a speed of 200 rpm at 37 °C for 24 h. For the MBEC assay, 100 µL of bacterial suspension (5 × 10^5 CFU/mL) in each well was seeded in a new 96-well plate, and the plate was put into the same shaking incubator for 24 h incubation to allow biofilm formation on the well. After biofilm formation, the biofilm in the plate was washed with PBS twice. The PBS was aspirated between washes to remove planktonic bacterial cells. The washed biofilm in each well was treated with 100 µL of serial dilutions (from 1 µM to 512 µM) of the test peptides. Then, the plate was incubated in the same shaking incubator for another 24 h. After being washed by PBS twice and fixed with methanol, the biofilm in each well was incubated with 100 µL of 0.1% crystal violet for 30 min, and the stained biofilm was dissolved in 100 µL of glacial acidic acid after drying. The solutions were transferred to a new microplate, and the absorbance of each well was measured using a microplate reader (EL808, Biolise BioTek, Winooski, VT, USA) set to 595 nm wavelength. The MBIC was the minimum concentration of the peptide showing no biofilm formation. The MBEC is the lowest concentration of the peptide capable of eradicating the mature biofilms, which had no biofilm in the well.

[2] = tested on: E. faecalis (NCTC 12697); test: microbe, parasite or virus in culture; format: cell-based, Enterococcus faecalis
How it was run: (§1)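 Peptides spanning 1–512 µM act on bacteria in log phase, 5 × 10^5 CFU/mL final, for 24 h at 37 °C; the MIC is the lowest concentration without visible growth, read at 550 nm. The MBC is the lowest concentration giving 99.9% kill on Mueller Hinton agar after 18 h.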

[3] = tested on: horse red blood cells; format: cell-based
Protocol: As a previous study described in detail, the haemolysis activity assays of peptides were conducted on defibrinated horse blood (TCS Biosciences Ltd., Buckingham, UK) with an erythrocyte suspension concentration of 2% (v/v). The 120 μL of peptide solution in a gradient concentration ranging from 1µM to 512 µM was mixed with the same volume of 2% horse red blood cell suspension, and the complex was incubated at 37 °C for 2 h. PBS and 0.1% Triton X-100 were chosen as the negative and positive control, respectively. After centrifugation at 900× g for 5 min, the absorbance of the supernatant was analysed using a microplate reader (EL808, Biolise BioTek, Winooski, VT, USA) set to a wavelength of 570 nm. The equation to calculate the haemolysis of the peptides is shown below: Haemolysis (%)=A−An/Ap−An×100% where A represents the absorbance of each treatment group, An represents the average absorbance of the negative control group, and Ap represents the average absorbance of the positive control group.

[4] = tested on: K. pneumoniae (ATCC 43816); test: microbe, parasite or virus in culture; format: cell-based, Klebsiella pneumoniae
How it was run: as §1

[5] = tested on: K. pneumoniae (ATCC BAA-1705); test: microbe, parasite or virus in culture; format: cell-based, Klebsiella pneumoniae
How it was run: as §1

[6] = tested on: MRSA (NCTC 12493); format: cell-based, methicillin-resistant Staphylococcus aureus; conditions: NCTC 12493, 24 h
Protocol: (§2) The antimicrobial activities of peptides were evaluated against the Gram-positive bacteria, S. aureus (ATCC 6538), methicillin-resistant Staphylococcus aureus (MRSA) (NCTC 12493), Enterococcus faecalis (E. faecalis) (NCTC 12697); the Gram-negative bacteria, E. coli (ATCC CRM 8739), Klebsiella pneumoniae (K. pneumoniae) (ATCC 43816), Pseudomonas aeruginosa (P. aeruginosa) (ATCC CRM 9027); and the yeast, Candida albicans (C. albicans) (ATCC CRM 10231). Clinical isolates of MRSA (B042 V2E1 A), E. coli (ATCC BAA-2340), K. pneumoniae (ATCC BAA-1705), and P. aeruginosa (B004 V2S2 B) were also used to determine their antimicrobial activities. The suspension of microorganisms in the logarithmic growth phase with a specific final density (Gram-negative and Gram-positive bacteria: 5 × 10^5 CFU/mL; yeast: 1 × 10^6 CFU/mL) was incubated with different peptide concentrations from 1 µM to 512 µM at 37 °C for 24 h. PBS was used as the negative control, and norfloxacin and amphotericin B were selected as the positive control for bacteria and yeast, respectively. Since the Norfloxacin had weak activities against P. aeruginosa (B004 V2S2 B) and K. pneumoniae (ATCC BAA 1705), gentamicin was used as the positive control for these two bacterial strains. The absorbance of each well was obtained using a microplate reader (EL808, Biolise BioTek, Winooski, VT, USA) set at 550 nm wavelength. The MIC value was the lowest concentration of a peptide that inhibits visible bacterial growth. Once the MIC values were determined, an aliquot from the bacterial culture exposed to the peptide at or above its MIC value was inoculated on a Mueller Hinton agar (MHA) and was incubated at 37 for 18 h. The MBC value was the lowest concentration of a peptide that kills 99.9% of bacteria.
(§3) According to the procedures in a previous article, the analysis of the sensitivity of the peptides was determined by measuring MIC values in the presence of different types of salts and 10% fetal bovine serum. MRSA (NCTC 12493) and K. pneumoniae (ATCC 43816) were selected as the subjects of these assays. Various salts at different concentrations, including 150 mM NaCl, 4.5 mM KCl, 6 μM NH4Cl, 1 mM MgCl2, […], […], and 10% serum (Gibco, Auckland, New Zealand), were added to the MHB medium for the examination of the MIC values which were determined as described in Section 2.7.

[7] = tested on: K. pneumoniae (ATCC 43816); format: cell-based, Klebsiella pneumoniae; conditions: ATCC 43816, 24 h
Protocol: as §2, §3

**Q.** Which MBIC [1] does the source give for FLPKIIGKLSSLLPKIF-NH2 [Temporin-PKE-3K] here?
**A.** 4 µM

**Q.** What about the MBC ([2]; NCTC 12697, 18 h) of the same substance?
**A.** 2 µM

**Q.** What about the MIC ([2]; NCTC 12697, 24 h) of the same substance?
**A.** 2 µM

**Q.** What about the HC50 [3] of the same substance?
**A.** 87.47 µM

**Q.** And the HC50 ([3]; red cells of horse, 2 h)?
**A.** 87.47 µM

**Q.** And the MBC ([4]; ATCC 43816, 18 h)?
**A.** 4/4 μM

**Q.** And the MIC ([4]; ATCC 43816, 24 h, read-out: MIC)?
**A.** 4 µM

**Q.** What about the MBC ([5]; ATCC BAA-1705, 18 h) of the same substance?
**A.** 8 µM

**Q.** What about the MIC ([5]; ATCC BAA-1705, 24 h) of the same substance?
**A.** 8 µM

**Q.** What about the “MIC against MRSA in the presence of 4 µM FeCl3” value [6] of the same substance?
**A.** 2 µM

**Q.** And the “MIC against MRSA in the presence of 6 µM NH4Cl” value [6]?
**A.** 4 µM

**Q.** And the “MIC against MRSA in the presence of 8 µM ZnCl2” value [6]?
**A.** 16 µM

**Q.** What about the “MIC against MRSA in the presence of 1 mM MgCl2” value [6] of the same substance?
**A.** 4 µM

**Q.** And the “MIC against MRSA in the presence of 2 mM CaCl2” value [6]?
**A.** 4 µM

**Q.** And the “MIC against MRSA in the presence of 4.5 mM KCl” value [6]?
**A.** 4 µM

**Q.** And the “MIC against MRSA in the presence of 150 mM NaCl” value [6]?
**A.** 8 µM

**Q.** What about the “MIC against MRSA in the presence of 10% FBS” value [6] of the same substance?
**A.** 4 µM

**Q.** And the “MIC against MRSA, Negative” value [6]?
**A.** 2 µM

**Q.** What about the “MIC against K. pneumoniae in the presence of 4 µM FeCl3” value [7] of the same substance?
**A.** 16 µM

**Q.** And the “MIC against K. pneumoniae in the presence of 6 µM NH4Cl” value [7]?
**A.** 4 µM

**Q.** What about the “MIC against K. pneumoniae in the presence of 8 µM ZnCl2” value [7] of the same substance?
**A.** 4 µM

**Q.** What about the “MIC against K. pneumoniae in the presence of 1 mM MgCl2” value [7] of the same substance?
**A.** 16 µM

**Q.** And the “MIC against K. pneumoniae in the presence of 2 mM CaCl2” value [7]?
**A.** 16 µM

**Q.** What about the “MIC against K. pneumoniae in the presence of 4.5 mM KCl” value [7] of the same substance?
**A.** 4 µM

**Q.** And the “MIC against K. pneumoniae in the presence of 150 mM NaCl” value [7]?
**A.** 16 µM

**Q.** What about the “MIC against K. pneumoniae in the presence of 10% FBS” value [7] of the same substance?
**A.** 16 µM

**Q.** What about the “MIC against K. pneumoniae, Negative” value [7] of the same substance?
**A.** 4 µM
